{"source": "ChEMBL document CHEMBL3885861", "about": "“Open TG-GATES”", "organism": "Rattus norvegicus", "assay": "Open TG-GATES - Regimen: Daily Repeat", "assay_type": "toxicity, organism-based, Sprague-Dawley", "set-up": "regimen Daily Repeat, gender Male, age 6 weeks", "conditions": "in vivo, po, 300 mg/kg, route gavage, dose level Low; for Bas / Eos / Hb / Ht / Lym / MCH / MCHC / MCV / Mono / Neu / Plat / RBC / Ret / WBC: tissue Blood", "key": {"[1]": {"conditions": "72 h, tissue Kidney, time 3 day"}, "[2]": {"conditions": "72 h, tissue Plasma, time 3 day"}}}
{"smiles": "CC(N)=O", "note": "[ACETAMIDE]", "values": [{"measurement": "TERMINAL_BW", "setting": "72 h, time 3 day", "value": 239.9, "unit": "g"}, {"measurement": "Bas", "setting": "72 h, time 3 day", "value": 0, "unit": "%"}, {"measurement": "Eos", "setting": "72 h, time 3 day", "value": 0.8, "unit": "%"}, {"measurement": "Hb", "setting": "72 h, time 3 day", "value": 12.4, "unit": "g/dL"}, {"measurement": "Ht", "setting": "72 h, time 3 day", "value": 38.3, "unit": "%"}, {"measurement": "Lym", "setting": "72 h, time 3 day", "value": 75.8, "unit": "%"}, {"measurement": "MCH", "setting": "72 h, time 3 day", "value": 20.5, "unit": "pg"}, {"measurement": "MCHC", "setting": "72 h, time 3 day", "value": 32.5, "unit": "%"}, {"measurement": "MCV", "setting": "72 h, time 3 day", "value": 63, "unit": "fL"}, {"measurement": "Mono", "setting": "72 h, time 3 day", "value": 3.4, "unit": "%"}, {"measurement": "Neu", "setting": "72 h, time 3 day", "value": 19.4, "unit": "%"}, {"measurement": "Plat", "setting": "72 h, time 3 day", "value": 135.2, "unit": "x10_4/uL"}, {"measurement": "RBC", "setting": "72 h, time 3 day", "value": 608.2, "unit": "x10_4/ul"}, {"measurement": "Ret", "setting": "72 h, time 3 day", "value": 8.2, "unit": "%"}, {"measurement": "WBC", "setting": "72 h, time 3 day", "value": 104.5, "unit": "x10_2/uL"}, {"measurement": "KIDNEY_L", "setting": "[1]", "value": 1, "unit": "g"}, {"measurement": "KIDNEY_R", "setting": "[1]", "value": 1, "unit": "g"}, {"measurement": "KIDNEY_TOTAL", "setting": "[1]", "value": 2.1, "unit": "g"}, {"measurement": "LIVER", "setting": "72 h, tissue Liver, time 3 day", "value": 11.3, "unit": "g"}, {"measurement": "A/G", "setting": "[2]", "value": 1}, {"measurement": "ALP", "setting": "[2]", "value": 2008.8, "unit": "IU/L"}, {"measurement": "ALT", "setting": "[2]", "value": 36.4, "unit": "IU/L"}, {"measurement": "AST", "setting": "[2]", "value": 65.4, "unit": "IU/L"}, {"measurement": "BUN", "setting": "[2]", "value": 17.6, "unit": "mg/dL"}, {"measurement": "CRE", "setting": "[2]", "value": 0.1, "unit": "mg/dL"}, {"measurement": "Ca", "setting": "[2]", "value": 10.8, "unit": "mg/dL"}, {"measurement": "Cl", "setting": "[2]", "value": 103.4, "unit": "meq/L"}, {"measurement": "DBIL", "setting": "[2]", "value": 0.002, "unit": "mg/dL"}, {"measurement": "GLC", "setting": "[2]", "value": 184.6, "unit": "mg/dL"}, {"measurement": "IP", "setting": "[2]", "value": 6.6, "unit": "mg/dL"}, {"measurement": "K", "setting": "[2]", "value": 4.5, "unit": "meq/L"}, {"measurement": "LDH", "setting": "[2]", "value": 138.4, "unit": "IU/L"}, {"measurement": "Na", "setting": "[2]", "value": 139.5, "unit": "meq/L"}, {"measurement": "PL", "setting": "[2]", "value": 157.2, "unit": "mg/dL"}, {"measurement": "RALB", "setting": "[2]", "value": 2.8, "unit": "g/dL"}, {"measurement": "TBIL", "setting": "[2]", "value": 0.006, "unit": "mg/dL"}, {"measurement": "TC", "setting": "[2]", "value": 80.4, "unit": "mg/dL"}, {"measurement": "TG", "setting": "[2]", "value": 137.5, "unit": "mg/dL"}, {"measurement": "TP", "setting": "[2]", "value": 5.5, "unit": "g/dL"}, {"measurement": "gamma-GTP", "setting": "[2]", "value": 0.8, "unit": "IU/L"}, {"measurement": "TERMINAL_BW", "setting": "[…], time 7 day", "value": 271.7, "unit": "g"}, {"measurement": "TERMINAL_BW", "setting": "[…], time 14 day", "value": 327.7, "unit": "g"}, {"measurement": "TERMINAL_BW", "setting": "[…], time 28 day", "value": 432.9, "unit": "g"}, {"measurement": "Bas", "setting": "[…], time 7 day", "value": 0, "unit": "%"}, {"measurement": "Eos", "setting": "[…], time 7 day", "value": 0.8, "unit": "%"}, {"measurement": "Hb", "setting": "[…], time 7 day", "value": 12.5, "unit": "g/dL"}, {"measurement": "Ht", "setting": "[…], time 7 day", "value": 38.3, "unit": "%"}, {"measurement": "Lym", "setting": "[…], time 7 day", "value": 76.4, "unit": "%"}, {"measurement": "MCH", "setting": "[…], time 7 day", "value": 19.8, "unit": "pg"}, {"measurement": "MCHC", "setting": "[…], time 7 day", "value": 32.7, "unit": "%"}, {"measurement": "MCV", "setting": "[…], time 7 day", "value": 60.6, "unit": "fL"}, {"measurement": "Mono", "setting": "[…], time 7 day", "value": 3.4, "unit": "%"}, {"measurement": "Neu", "setting": "[…], time 7 day", "value": 18.4, "unit": "%"}, {"measurement": "Plat", "setting": "[…], time 7 day", "value": 115.7, "unit": "x10_4/uL"}, {"measurement": "RBC", "setting": "[…], time 7 day", "value": 631.6, "unit": "x10_4/ul"}, {"measurement": "Ret", "setting": "[…], time 7 day", "value": 6.4, "unit": "%"}, {"measurement": "WBC", "setting": "[…], time 7 day", "value": 120.4, "unit": "x10_2/uL"}, {"measurement": "Bas", "setting": "[…], time 14 day", "value": 0, "unit": "%"}, {"measurement": "Eos", "setting": "[…], time 14 day", "value": 1, "unit": "%"}, {"measurement": "Hb", "setting": "[…], time 14 day", "value": 13.2, "unit": "g/dL"}, {"measurement": "Ht", "setting": "[…], time 14 day", "value": 39.9, "unit": "%"}, {"measurement": "Lym", "setting": "[…], time 14 day", "value": 76.8, "unit": "%"}, {"measurement": "MCH", "setting": "[…], time 14 day", "value": 19.6, "unit": "pg"}, {"measurement": "MCHC", "setting": "[…], time 14 day", "value": 33.2, "unit": "%"}, {"measurement": "MCV", "setting": "[…], time 14 day", "value": 59.2, "unit": "fL"}, {"measurement": "Mono", "setting": "[…], time 14 day", "value": 2.8, "unit": "%"}, {"measurement": "Neu", "setting": "[…], time 14 day", "value": 19, "unit": "%"}, {"measurement": "Plat", "setting": "[…], time 14 day", "value": 105.9, "unit": "x10_4/uL"}, {"measurement": "RBC", "setting": "[…], time 14 day", "value": 674.2, "unit": "x10_4/ul"}, {"measurement": "Ret", "setting": "[…], time 14 day", "value": 4.8, "unit": "%"}, {"measurement": "WBC", "setting": "[…], time 14 day", "value": 126.4, "unit": "x10_2/uL"}, {"measurement": "Bas", "setting": "[…], time 28 day", "value": 0, "unit": "%"}, {"measurement": "Eos", "setting": "[…], time 28 day", "value": 1, "unit": "%"}, {"measurement": "Hb", "setting": "[…], time 28 day", "value": 14.1, "unit": "g/dL"}, {"measurement": "Ht", "setting": "[…], time 28 day", "value": 42.1, "unit": "%"}, {"measurement": "Lym", "setting": "[…], time 28 day", "value": 77.8, "unit": "%"}, {"measurement": "MCH", "setting": "[…], time 28 day", "value": 19.1, "unit": "pg"}, {"measurement": "MCHC", "setting": "[…], time 28 day", "value": 33.5, "unit": "%"}, {"measurement": "MCV", "setting": "[…], time 28 day", "value": 57.1, "unit": "fL"}, {"measurement": "Mono", "setting": "[…], time 28 day", "value": 2.4, "unit": "%"}]}
